How the values were obtained:
KURAMOCHI = experiment: drug sensitivity score (DSS2) on cancer cell count; higher = more sensitive; extreme values may be limits of the assay; conditions: 72 h
How it was run: (§1)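 Screen quality was checked by Z', and a drug sensitivity score was derived in Breeze from logistic fits of the cancer cell counts. These counts were obtained by imaging at 10× (4 fields) after fixing and immunostaining for CK8/18 with Hoechst. Before that, ovarian cancer cells, alone or in 1:1 direct co-culture with lung or skin fibroblasts, had been treated for 72 h on 384-well plates acoustically pre-spotted with 528 approved and investigational compounds at 5 concentrations.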

OVCAR8 = experiment: as above; conditions: 72 h
How it was run: as §1

[1] = co-cultured fibroblast: BJHTERT
[2] = co-cultured fibroblast: none (monoculture)

SMILES | drug sensitivity score (KURAMOCHI; [1]) [DSS] | drug sensitivity score (KURAMOCHI; co-cultured fibroblast: WI38) [DSS] | drug sensitivity score (KURAMOCHI; [2]) [DSS] | drug sensitivity score (OVCAR8; [1]) [DSS] | drug sensitivity score (OVCAR8; co-cultured fibroblast: WI38) [DSS] | drug sensitivity score (OVCAR8; [2]) [DSS]
CNC(=O)c1ccc(N2C(=S)N(c3ccc(C#N)c(C(F)(F)F)c3)C(=O)C2(C)C)cc1F [Enzalutamide] | 0 | 0 | 1.3 | 0 | 0 | 2.2
Cn1cc(C2=C(c3cn(C4CCN(Cc5ccccn5)CC4)c4ccccc34)C(=O)NC2=O)c2ccccc21 [Enzastaurin] | 0 | 0.6 | 0 | 0 | 6.4 | 0
NS(=O)(=O)NCCNc1nonc1/C(=N/O)Nc1ccc(F)c(Br)c1 [Epacadostat] | 0 | 0 | 0 | 0 | 0 | 0.6
COc1cccc2c1C(=O)c1c(O)c3c(c(O)c1C2=O)C[C@@](O)(C(=O)CO)C[C@@H]3O[C@H]1C[C@H](N)[C@@H](O)[C@H](C)O1 [Epirubicin] | 12.2 | 12.7 | 19.2 | 14.7 | 9 | 12.3
CCOc1ccccc1-n1c(C(C)N2CCN(C(=O)COc3ccc(Cl)cc3)CC2)nc2ccccc2c1=O (stereo not given) [Erastin] | 3.6 | 3.9 | 2.6 | 17.9 | 18.6 | 7.4
COc1cc(OC)cc(N(CCNC(C)C)c2ccc3ncc(-c4cnn(C)c4)nc3c2)c1 [Erdafitinib] | 0 | 0 | 0 | 0 | 0 | 0
C=C1C[C@@H]2CC[C@@]34C[C@H]5O[C@H]6[C@@H](O3)[C@H]3O[C@H](CC[C@@H]3O[C@H]6[C@H]5O4)CC(=O)C[C@@H]3[C@@H](OC)[C@@H](C[C@H](O)CN)O[C@H]3C[C@H]3O[C@@H](CC[C@@H]1O2)C[C@@H](C)C3=C [Eribulin] | 28.8 | 26.9 | 27.5 | 27.5 | 29.9 | 26.6
C#Cc1cccc(Nc2ncnc3cc(OCCOC)c(OCCOC)cc23)c1 [Erlotinib] | 1.1 | 2.6 | 0.4 | 3.1 | 0 | 5
COc1cc([C@@H]2c3cc4c(cc3[C@@H](O[C@@H]3O[C@@H]5CO[C@@H](C)O[C@H]5[C@H](O)[C@H]3O)[C@H]3COC(=O)[C@H]23)OCO4)cc(OC)c1O [Etoposide] | 11.7 | 13.8 | 16.1 | 11.8 | 13.1 | 13.9
CO[C@H]1C[C@@H]2CC[C@@H](C)[C@@](O)(O2)C(=O)C(=O)N2CCCC[C@H]2C(=O)O[C@H]([C@H](C)C[C@@H]2CC[C@@H](OCCO)[C@H](OC)C2)CC(=O)[C@H](C)/C=C(\C)[C@@H](O)[C@@H](OC)C(=O)[C@H](C)C[C@H](C)/C=C/C=C/C=C/1C [Everolimus] | 5.6 | 5.6 | 0 | 8.4 | 0 | 2.2
C=C1C[C@@H]2[C@H](CC[C@]3(C)C(=O)CC[C@@H]23)[C@@]2(C)C=CC(=O)C=C12 [Exemestane] | 0 | 0 | 0 | 1.3 | 0 | 0
CCn1c(=O)c(-c2ccc(Cl)cc2Cl)cc2cnc(Nc3ccc(N4CCNCC4)c(F)c3)nc21 [FRAX486] | 9.7 | 4.9 | 9.2 | 5.8 | 9.8 | 13.1
Cc1cnc(Nc2ccc(OCCN3CCCC3)cc2)nc1Nc1cccc(S(=O)(=O)NC(C)(C)C)c1 [Fedratinib] | 7.9 | 3.7 | 2.8 | 4.9 | 5.2 | 7.2
CON(C)C(=O)N1N=C(c2cc(F)ccc2F)S[C@@]1(CCCN)c1ccccc1 [Filanesib] | 21.4 | 22.4 | 16.2 | 21.9 | 32.9 | 29.3
O=C(Nc1nc2cccc(-c3ccc(CN4CCS(=O)(=O)CC4)cc3)n2n1)C1CC1 [Filgotinib] | 5.1 | 5.2 | 2.4 | 2.9 | 1.3 | 1.7
CC(C)(C)NC(=O)[C@H]1CC[C@H]2[C@@H]3CC[C@H]4NC(=O)C=C[C@]4(C)[C@H]3CC[C@]12C [Finasteride] | 0 | 0 | 0 | 2.1 | 0 | 0
O=c1[nH]c(=O)n([C@H]2C[C@H](O)[C@@H](CO)O2)cc1F [Floxuridine] | 19.9 | 19 | 20.7 | 18.7 | 17.9 | 26.7
Nc1nc(F)nc2c1ncn2[C@@H]1O[C@H](CO)[C@@H](O)[C@@H]1O [Fludarabine] | 0.3 | 4.5 | 0 | 8 | 8.5 | 13.4
O=c1[nH]cc(F)c(=O)[nH]1 [Fluorouracil] | 2.3 | 5.4 | 5 | 1.3 | 1.4 | 5.5
CC(C)C(=O)Nc1ccc([N+](=O)[O-])c(C(F)(F)F)c1 [Flutamide] | 0 | 1.3 | 0 | 0 | 0 | 0
COc1cc2c(Oc3ccc(NC(=O)C4(C(=O)Nc5ccc(F)cc5)CC4)cc3F)ccnc2cc1OCCCN1CCOCC1 [Foretinib] | 2.7 | 4.3 | 1.7 | 5.7 | 5.6 | 6.1
COc1cc(Nc2ncc(F)c(Nc3ccc4c(n3)N(COP(=O)(O)O)C(=O)C(C)(C)O4)n2)cc(OC)c1OC [Fostamatinib] | 0 | 2 | 0.3 | 0 | 0 | 0
C[C@]12CC[C@@H]3c4ccc(O)cc4C[C@@H](CCCCCCCCC[S+]([O-])CCCC(F)(F)C(F)(F)F)[C@H]3[C@@H]1CC[C@@H]2O (stereo not given in full) [Fulvestrant] | 0 | 0 | 0 | 0 | 7.2 | 0
CC1(C)OCCn2c1nc1c(N3CCOCC3)nc(-c3cnc(N)nc3)nc12 [GDC-0084] | 12.7 | 11.5 | 12.1 | 8.3 | 3.8 | 11.9
O=C(NOCCO)c1ccc2cncn2c1Nc1ccc(I)cc1F [GDC-0623] | 0 | 0 | 18.9 | 7.5 | 0 | 19.2

SMILES | drug sensitivity score (KURAMOCHI; [1]) [DSS] | drug sensitivity score (KURAMOCHI; co-cultured fibroblast: WI38) [DSS] | drug sensitivity score (KURAMOCHI; [2]) [DSS] | drug sensitivity score (OVCAR8; [1]) [DSS] | drug sensitivity score (OVCAR8; co-cultured fibroblast: WI38) [DSS] | drug sensitivity score (OVCAR8; [2]) [DSS]
C[C@H]1CN(C2COC2)CCN1c1ccc(Nc2cc(-c3ccnc(N4CCn5c(cc6c5CC(C)(C)C6)C4=O)c3CO)cn(C)c2=O)nc1 [GDC-0853] | 0 | 0 | 0 | 0 | 2.3 | 0
O[C@H](C[C@H]1c2c(F)cccc2-c2cncn21)[C@H]1CC[C@H](O)CC1 [GDC-0919] | 1.3 | 0 | 0 | 0 | 0 | 1.6
CNc1nc(Nc2cn(C(C)(C)C#N)nc2C)ncc1C(F)(F)F [GNE-0877] | 0 | 0 | 0 | 0 | 1.8 | 0
CCNc1nc(Nc2cc(F)c(C(=O)N3CCOCC3)cc2OC)ncc1C(F)(F)F [GNE-7915] | 0 | 0 | 0 | 0 | 0 | 0
CCCc1cc(C)[nH]c(=O)c1CNC(=O)c1cc(-c2ccnc(N3CCN(C)CC3)c2)cc2c1cnn2C(C)C [GSK343] | 0 | 0 | 0 | 1 | 0 | 0
CCCOc1ccn2c(C(C)=O)cc(-c3ccccc3S(C)(=O)=O)c2c1 [GSK2801] | 0 | 0 | 0.9 | 0 | 0 | 0
CCOC(=O)CCNc1cc(N2CCc3ccccc3CC2)nc(-c2ccccn2)n1 [GSK-J4] | 3.1 | 2.7 | 10.5 | 1.6 | 0.3 | 4.2
C[C@@H]1C=C2C(=O)O[C@@H]3CC[C@H](C1)[C@]23O [Galiellalactone] | 6.9 | 8.2 | 3.5 | 0 | 3.9 | 0
Cc1cccc(-c2nn3c(c2-c2ccnc4ccc(C(N)=O)cc24)CCC3)n1 [Galunisertib] | 3.4 | 0 | 13.8 | 0 | 0 | 0
Cc1cc(Nc2cc(CN3CCOCC3)c3nc(C)c(Cc4ccc(Cl)cc4F)n3n2)n[nH]1 [Gandotinib] | 7.6 | 3.7 | 4 | 9 | 12.1 | 9.7
CC(C)c1cc(-c2n[nH]c(=O)n2-c2ccc3c(ccn3C)c2)c(O)cc1O [Ganetespib] | 14.8 | 17.1 | 21 | 22.3 | 22.9 | 27.1
CN(C)C1CCN(C(=O)c2ccc(NC(=O)Nc3ccc(-c4nc(N5CCOCC5)nc(N5CCOCC5)n4)cc3)cc2)CC1 [Gedatolisib] | 16.8 | 16 | 21.3 | 8.7 | 2 | 8.2
COc1cc2ncnc(Nc3ccc(F)c(Cl)c3)c2cc1OCCCN1CCOCC1 [Gefitinib] | 2.9 | 3 | 0 | 5.8 | 0 | 3.7
Nc1ccn([C@@H]2O[C@H](CO)[C@@H](O)C2(F)F)c(=O)n1 [Gemcitabine] | 18.4 | 25.2 | 26.7 | 29.5 | 27.2 | 26.3
CCc1nc(C(N)=O)c(Nc2ccc(N3CCC(N4CCN(C)CC4)CC3)c(OC)c2)nc1NC1CCOCC1 [Gilteritinib] | 0.4 | 0 | 0 | 1.5 | 0 | 0
CCN(CC)Cc1ccc2cc(COC(=O)Nc3ccc(C(=O)NO)cc3)ccc2c1 [Givinostat] | 8.6 | 7.4 | 6.1 | 14.9 | 8.5 | 8.8
CN1CC[C@@H](NC(=O)Nc2ccc(C#N)cc2)C[C@@H]1c1nc2ccccc2[nH]1 [Glasdegib] | 0.5 | 1.1 | 0 | 0 | 0 | 0
COCCNCc1ccc(-c2cc3nccc(Oc4ccc(NC(=S)NC(=O)Cc5ccc(F)cc5)cc4F)c3s2)nc1 [Glesatinib] | 2.7 | 1.6 | 2.3 | 0 | 3.5 | 0
CN1CCN(C2CCN(C(=O)Nc3cc(Oc4ccc(NC(=O)C5(C(=O)Nc6ccc(F)cc6)CC5)c(F)c4)ccn3)CC2)CC1 [Golvatinib] | 0 | 0 | 0 | 0 | 0 | 0
CC(C)C[C@H](NC(=O)[C@@H](COC(C)(C)C)NC(=O)[C@H](Cc1ccc(O)cc1)NC(=O)[C@H](CO)NC(=O)[C@H](Cc1c[nH]c2ccccc12)NC(=O)[C@H](Cc1cnc[nH]1)NC(=O)[C@@H]1CCC(=O)N1)C(=O)N[C@@H](CCCNC(=N)N)C(=O)N1CCC[C@H]1C(=O)NNC(N)=O [Goserelin] | 0 | 0 | 0 | 0 | 0 | 0
O=S(=O)(c1cccc2c(O)nccc12)N1CCCNCC1 [Hydroxyfasudil] | 0 | 1 | 2 | 0 | 1.2 | 0
NC(=O)NO [Hydroxyurea] | 5.9 | 7.3 | 6.3 | 1.8 | 7.3 | 7.7
COc1cc2c(cc1-c1c(C)noc1C)ncc1[nH]c(=O)n([C@H](C)c3ccccn3)c12 [I-BET151] | 9.5 | 9.4 | 6.3 | 14.1 | 4 | 15.9
O=C(O)c1ccc(O)c2ncccc12 [IOX-1] | 3.6 | 5.9 | 5.5 | 3.4 | 0.7 | 4.8
O=C(O)CNC(=O)c1c(O)c2ccccc2n(Cc2ccccc2)c1=O [IOX-2] | 0.4 | 0 | 1.3 | 0 | 0 | 0.5
